Results reported in patent publication US8039634B2, “Oxazole hydroxamic acid derivatives and use thereof” (SK Holdings Co., Ltd., priority 2005, dated 2011).
Converted amounts (≈) assume the structure as drawn. Like-named read-outs stand apart in the source and are kept apart here.

Legend:
HDAC = test: Inhibition of HDAC activity (fluorometric, HeLa nuclear extract); type: biochemical, human; details: 30 min room temperature
Protocol: In order to determine inhibitory activity of a compound in accordance with the present invention on HDAC, evaluation was carried out using an aminocoumarin derivative of ω-acetylated lysine as a substrate for an enzyme. As an enzyme source, a nuclear extract obtained from human cervical cancer cell line HeLa cells was used. The above evaluation was carried out with modification of a method based on the details described in Weegener et al. (2003) Analytical Biochemistry, 321, 203-208. That is, […], […] of nuclear extract and a compound of Example 1 at different concentrations were added and maintained at room temperature for 30 min. Trypsin (10 mg/ml) and Trichostatin A (final concentration: […]) were added to the resulting mixture which was reacted at the same temperature for 20 min, thereby terminating the reaction. The enzyme activity-inhibitory concentration of the compound added was determined using a fluorometer. As a control compound, suberoylanilide hydroxamic acid (SAHA) was used. IC50 in Table 1 below refers to a concentration of the compound that leads to a 50% decrease in activity of HDAC.

HeLa = test: In vitro toxicity / growth inhibition (CellTiter-Glo), HeLa; type: cell-based; details: Homo sapiens, 48 hr
Protocol: (§1) In order to determine in vitro toxicity of a compound in accordance with the present invention, 18 species of human cancer cell lines (HeLa, cervical cancer cell line; HCT116, SW480, SW620, RKO, colon cancer cell lines; H460, H1299, A549, lung cancer cell lines; MCF7, MDA-MB231, MDA-MB453, breast cancer cell lines; Jurkat, K562, THP1, Ramos, U937, blood cancer cell lines; PC3, DU145, prostate cancer cell lines) were used. Cell lines were cultured in RPMI 1640 culture medium containing penicillin/streptomycin (100 units/mL) and heat-inactivated 5% fetal bovine serum (FBS) under standard culture conditions ([…], 5% CO2, and 100% relative humidity). Thereafter, single cell suspension was obtained via trypsin treatment and pipetting. The suspension was diluted with the same medium such that a cell density is in a range of 8×10^3 to 1.5×10^4 cells/well, and was transferred to a 96-well microtiter plate. After culturing for 24 hours, cell cultures were treated with respective compounds of Examples at various concentrations. […] The above evaluation was carried out according to the methods given in a manufacture's manual. GI50 in Table 1 below refers to a concentration that compounds of Examples cause 50% growth inhibition of various cancer cells.

HCT116 = test: In vitro toxicity / growth inhibition (CellTiter-Glo), HCT116; type: cell-based; details: Homo sapiens, HCT-116; HCT116, 48 hr
Protocol: as §1

H460 = test: In vitro toxicity / growth inhibition (CellTiter-Glo), H460; type: cell-based; details: Homo sapiens, NCI-H460; H460, 48 hr
Protocol: as §1

MCF7 = test: In vitro toxicity / growth inhibition (CellTiter-Glo), MCF7; type: cell-based; details: Homo sapiens; MCF7, 48 hr
Protocol: as §1

Solubility = type: physicochemical
Histone Deacetylase = test: Histone H3/H4 acetylation in HCT116 cells (Western blot); type: cell-based, human; details: 1 μM, HCT116, 0, 2 and 5 hours
Protocol: Human color cancer cell line (HCT116) was cultured in RPMI 1640 culture medium containing penicillin/streptomycin (100 units/mL) and heat-inactivated 5% fetal bovine serum (FBS) under standard culture conditions ([…], 5% CO2, 37° C., and 100% relative humidity). Test compounds were dissolved in dimethylsulfoxide (DMSO) and were used as a final concentration of 1 μM. Cells (3×10^7) were cultured in the presence of the test compound (1 μM, Example 1) and absence thereof for 0, 2 and 5 hours, respectively. The cell suspension, which was obtained via trypsin treatment and pipetting, was centrifuged at 200×g for 10 min to form a pellet. The thus-formed pellet was washed twice with 10-fold volume of saline and re-suspended in a buffer [[…], pH 7.9, 1.5 mM MgCl2, 10 mM KCl, 0.5 mM DTT, 1.5 mM PMSF]. Thereafter, hydrochloric acid was added in a final concentration of 0.2 M to the resulting suspension which was then stored on ice for 30 min. The final suspension was centrifuged at 11,000 rpm and 4° C. for 10 min. […]
Dialyzed proteins were subjected to gel electrophoresis using 16% protein gel and were probed with acetylated histone H3 (Ac-H3) or H4 (Ac-H4) antibodies (Upstate Biotechnology Inc). […] In order to compare the equal amount of proteins, protein quantification and protein gel were run in parallel, followed by coumassie blue staining.

ICR-BG mice = details: mouse, in vivo
Protocol: In order to confirm acute toxicity in vivo, a Rotarod Neurotoxicity test was carried out on ICR-BG mice (N=8). Animals were administered at a dose of 300 mg/kg. Animals received training at 7 rpm for 10 min twice, and 1 hour later the compound of Example 1 was administered intraperitoneally (ip) to 8 mice. Thereafter, for one minute at the intervals of every 30 min, 1 hour, 2 hours and 4 hours, times that animals fell from the rotarod and death of animal post-drug administration or affliction-related responses were continuously observed. When mice fell from the rotarod more than thrice in one minute, it was regarded as fall off.

Raw cell = test: Inhibition of LPS-induced NO increases; type: cell-based, Mouse; details: 5 μM compound
Protocol: As one of the methods to confirm anti-inflammatory responses, inhibition of increases in nitric oxide (NO) due to lipopolysaccharide (LPS) was carried out. Mouse cell line (Raw cell) was cultured in RPMI 1640 culture medium containing penicillin/streptomycin (100 units/mL) and heat-inactivated 5% fetal bovine serum (FBS) under standard culture conditions ([…], 5% CO2, 37° C., and 100% relative humidity). Test compounds were dissolved in dimethylsulfoxide (DMSO) and were used as a final concentration of 1 to 40 μM. Cells were proliferated to a cell density of 5×10^3 to 2×10^4 cells on a 24-well plate and were treated with the respective compounds (equal amounts of 5 μM) 1 hour prior to treatment with LPS ([…]). The thus-treated cells were cultured for 18 hours, and thereafter the amounts of NO thus produced were measured using Griess Reagent. Measurement was confirmed using an absorption spectrophotometer at 540 nm. The value was expressed as percentage (%) relative to a control in which LPS alone was treated.

## COc1ccc(-c2oc(CCCCCCC(=O)NO)nc2-c2ccccc2)cc1 [Example 1, 7-(5-(4-methoxyphenyl)-4-phenyloxazol-2-yl)heptanoic acid hydroxyamide]
HDAC
  IC50: 1.07 nM
HeLa
  GI50: 1400 nM
HCT116
  GI50: 3000 nM
H460
  GI50: 3630 nM
MCF7
  GI50: 700 nM
Solubility
  solubility: 200 µg/mL (≈ 507 µM)
Histone Deacetylase
  Acetylation of histone H3 (Ac-H3) and H4 (Ac-H4): acetylated over time was confirmed via Western blot analysis
ICR-BG mice; 0.5 h
  Mice fallen off rotarod: 1/8(Fallen off)
ICR-BG mice; 1 h
  Mice fallen off rotarod: 1/8
ICR-BG mice; 2 h
  Mice fallen off rotarod: 0/8
ICR-BG mice; 4 h
  Mice fallen off rotarod: 0/8
Raw cell; LPS, 18 hours, Griess Reagent
  NO: 63.7 μM/L
Raw cell; Mus musculus, 18 h, relative to LPS alone control
  activity at 5 µM: 57.9%
